Here are results for 21 compounds from PubChem BioAssay AID248 (DTP/NCI, 2004).

The test deals with L1210 leukemia ip in BDF1 mice, survival T/C. As to the kind of experiment: NCI In Vivo Anticancer Drug Screen. Data for tumor model L1210 Leukemia (intraperitoneal) in B6D2F1 (BDF1) mice. To be noted: endpoint: mean survival time, higher = longer survival. The method, boiled down: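 Tumor was transplanted into mice, which were then dosed with test compound or vehicle alone. Survival was recorded for each group, and the treated figure was expressed relative to the control figure.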

Where [1] appears, read: dose: 100.0 mg/kg/injection, schedule: Q01DX009 (ip), vehicle: Klucel (hydroxypropylcellulose) (HPC).
Where [2] appears, read: dose: 200.0 mg/kg/injection, schedule: Q01DX009 (ip), vehicle: Klucel (hydroxypropylcellulose) (HPC).
[3] abbreviates: dose: 400.0 mg/kg/injection, schedule: Q01DX009 (ip), vehicle: Klucel (hydroxypropylcellulose) (HPC).
The mark [4] stands for this setting: dose: 200.0 mg/kg/injection, schedule: Q01DX001 (ip), vehicle: saline.
The mark [5] stands for this setting: dose: 400.0 mg/kg/injection, schedule: Q01DX001 (ip), vehicle: saline.
Where [6] appears, read: dose: 100.0 mg/kg/injection, schedule: Q04DX003 (ip), vehicle: saline.
Where [7] appears, read: dose: 200.0 mg/kg/injection, schedule: Q04DX003 (ip), vehicle: saline.
Setting [8] is: dose: 400.0 mg/kg/injection, schedule: Q04DX003 (ip), vehicle: saline.
Setting [9] is: dose: 100.0 mg/kg/injection, schedule: Q01DX001 (ip), vehicle: saline.
Where [10] appears, read: dose: 100.0 mg/kg/injection, schedule: Q04DX003 (ip), vehicle: saline with Tween-80.
Setting [11] is: dose: 200.0 mg/kg/injection, schedule: Q04DX003 (ip), vehicle: saline with Tween-80.
Where [12] appears, read: dose: 400.0 mg/kg/injection, schedule: Q04DX003 (ip), vehicle: saline with Tween-80.
Setting [13] is: dose: 100.0 mg/kg/injection, schedule: Q04DX002 (ip), vehicle: Klucel (hydroxypropylcellulose) (HPC).
[14] abbreviates: dose: 200.0 mg/kg/injection, schedule: Q04DX002 (ip), vehicle: Klucel (hydroxypropylcellulose) (HPC).

“And” between values parts separate entries of the source, which are not always exact repeats. Equal entries are not always repeated. Inconclusive results and toxic doses are left out.

In the case of `CCCCCCCCCCCCCCCCCCCCCCCCCCCCCCCS`, the T/C runs as follows: (dose: 100.0 mg/kg/injection, schedule: Q01DX001 (ip), vehicle: other) 95 % of control; (dose: 200.0 mg/kg/injection, schedule: Q01DX001 (ip), vehicle: other) 103 % of control.

In the case of `OC1c2cc(Cl)ccc2-c2c(N=Cc3ccc4c(c3)OCO4)cc(Cl)cc21` (stereo unspecified), the T/C reads like this: (dose: 100.0 mg/kg/injection, schedule: Q01DX001 (ip), vehicle: carboxymethylcellulose (CMC)) 90 % of control; (dose: 200.0 mg/kg/injection, schedule: Q01DX001 (ip), vehicle: carboxymethylcellulose (CMC)) 90 % of control; (dose: 400.0 mg/kg/injection, schedule: Q01DX001 (ip), vehicle: carboxymethylcellulose (CMC)) 93 % of control.

Take `COc1ccc(Br)cc1C1(O)C2C=CC1CC2` (stereo unspecified): the T/C reads like this: under setting [1], 102 % of control; under setting [2], 102 % of control; under setting [3], 98 % of control.

As for `O=C1C2Nc3ccccc3CC2CN1Cc1ccccc1` (stereo unspecified), the T/C is 106 % of control (dose: 10.0 mg/kg/injection, schedule: Q04DX003 (ip), vehicle: alcohol); 99 % of control (dose: 20.0 mg/kg/injection, schedule: Q04DX003 (ip), vehicle: alcohol); 99 % of control (dose: 40.0 mg/kg/injection, schedule: Q04DX003 (ip), vehicle: alcohol); 97 % of control (dose: 80.0 mg/kg/injection, schedule: Q04DX003 (ip), vehicle: alcohol); 100 % of control (dose: 160.0 mg/kg/injection, schedule: Q04DX003 (ip), vehicle: alcohol).

`O=C(N/N=C/c1cccc([N+](=O)[O-])c1)c1cccc2ccccc12`: the T/C runs as follows: under setting [4], 92 % of control; under setting [5], 95 % of control.

Consider `CNC(=N)c1ccc(NC(=N)c2ccc(NC(=N)c3ccc(NC(=O)c4ccc(C(=N)NC)cc4)cc3)cc2)cc1`, for which the T/C by setting is: (dose: 3.75 mg/kg/injection, schedule: Q01DX015 (ip), vehicle: water) 104 % of control; (dose: 7.5 mg/kg/injection, schedule: Q01DX015 (ip), vehicle: water) 101 % of control; (dose: 15.0 mg/kg/injection, schedule: Q01DX015 (ip), vehicle: water) 108 % of control; (dose: 20.0 mg/kg/injection, schedule: Q01DX Z (ip), vehicle: water) 177 % of control; (dose: 30.0 mg/kg/injection, schedule: Q01DX015 (ip), vehicle: water) 176 % of control and 180 % of control; (dose: 50.0 mg/kg/injection, schedule: Q01DX015 (ip), vehicle: water) 97 % of control.

With `CC(=O)NC1C(OCc2ccccc2)OC(COCc2ccccc2)C(OCc2ccccc2)C1OCc1ccccc1` (stereo unspecified), the T/C was 86 % of control (dose: 100.0 mg/kg/injection, schedule: Q01DX001 (ip), vehicle: saline with Tween-80); 94 % of control (dose: 200.0 mg/kg/injection, schedule: Q01DX001 (ip), vehicle: saline with Tween-80); 94 % of control (dose: 400.0 mg/kg/injection, schedule: Q01DX001 (ip), vehicle: saline with Tween-80).

Take `O=c1c2ccccc2nc(-c2ccccc2)n1/N=C/c1cccnc1`: the T/C is, setting by setting: under setting [1], 90 % of control; under setting [2], 98 % of control; under setting [3], 104 % of control.

`COC(=O)C12COC(=O)C1COC2=O` (stereo unspecified): the T/C under setting [6] is 100 % of control, the T/C under setting [7] is 98 % of control and the T/C under setting [8] was 109 % of control.

For `Nc1cccc(C(=O)Nc2cccc(S(=O)(=O)F)c2)c1`, the T/C was 95 % of control under setting [9], 98 % of control under setting [4] and 104 % of control under setting [5].

Consider `C[CH2][Pb]([CH2]C)([CH2]C)[O]C(=O)C=C1CCCC1`, for which the T/C (dose: 2.5 mg/kg/injection, schedule: Q01DX009 (ip), vehicle: saline with Tween-80) is 101 % of control.

Take `O=C(O)C1C2CC(C(Br)C2Br)C1C(=O)O` (stereo unspecified): the T/C under setting [9] was 98 % of control; the T/C under setting [1] was 95 % of control; the T/C (dose: 100.0 mg/kg/injection, schedule: Q01DX009 (ip), vehicle: acetone) was 98 % of control; the T/C (dose: 100.0 mg/kg/injection, schedule: Q04DX003 (ip), vehicle: Klucel (hydroxypropylcellulose) (HPC)) is 100 % of control; the T/C under setting [6] was 94 % of control; the T/C under setting [4] is 95 % of control. In addition, the T/C under setting [2] is 97 % of control; the T/C (dose: 200.0 mg/kg/injection, schedule: Q01DX009 (ip), vehicle: acetone) is 93 % of control; the T/C (dose: 200.0 mg/kg/injection, schedule: Q04DX003 (ip), vehicle: Klucel (hydroxypropylcellulose) (HPC)) is 103 % of control; the T/C under setting [7] was 94 % of control; the T/C under setting [5] is 96 % of control; the T/C under setting [3] was 98 % of control. Moreover, the T/C is 104 % of control (dose: 400.0 mg/kg/injection, schedule: Q01DX009 (ip), vehicle: acetone); 105 % of control (dose: 400.0 mg/kg/injection, schedule: Q04DX003 (ip), vehicle: Klucel (hydroxypropylcellulose) (HPC)); 91 % of control under setting [8].

Turning to `CS(=O)(=O)C1(S(C)(=O)=O)Cc2ccccc2C1`, the T/C by setting is: under setting [10], 91 % of control; under setting [11], 92 % of control; under setting [12], 100 % of control.

As to `O=C(NCCN1CCOCC1)Nc1cccc2c1CCCC2`, the T/C was 94 % of control (dose: 100.0 mg/kg/injection, schedule: Q04DX002 (ip), vehicle: saline with Tween-80); 108 % of control (dose: 200.0 mg/kg/injection, schedule: Q04DX002 (ip), vehicle: saline with Tween-80); 116 % of control (dose: 400.0 mg/kg/injection, schedule: Q04DX002 (ip), vehicle: saline with Tween-80).

`CC(=O)c1cnn(-c2ccccc2)c1C`: the T/C by setting is: (dose: 100.0 mg/kg/injection, schedule: Q01DX009 (ip), vehicle: other) 96 % of control; (dose: 100.0 mg/kg/injection, schedule: Q04DX003 (ip), vehicle: other) 89 % of control; (dose: 200.0 mg/kg/injection, schedule: Q01DX009 (ip), vehicle: other) 101 % of control; (dose: 200.0 mg/kg/injection, schedule: Q04DX003 (ip), vehicle: other) 100 % of control; (dose: 400.0 mg/kg/injection, schedule: Q01DX009 (ip), vehicle: other) 102 % of control; (dose: 400.0 mg/kg/injection, schedule: Q04DX003 (ip), vehicle: other) 92 % of control.

As for `Cc1cccc(Cl)c1NC(=O)Oc1ccccc1C(N)=O`, the T/C is, setting by setting: under setting [1], 92 % of control; under setting [13], 95 % of control; under setting [2], 100 % of control; under setting [14], 100 % of control; under setting [3], 105 % of control; (dose: 400.0 mg/kg/injection, schedule: Q04DX002 (ip), vehicle: Klucel (hydroxypropylcellulose) (HPC)) 100 % of control.

Regarding `[N-]=[N+]=Nc1ccc2c(=O)c3ccccc3[nH]c2c1`, the T/C was 89 % of control (dose: 100.0 mg/kg/injection, schedule: Q04DX003 (ip), vehicle: acetone); 98 % of control (dose: 200.0 mg/kg/injection, schedule: Q04DX003 (ip), vehicle: acetone); 96 % of control (dose: 400.0 mg/kg/injection, schedule: Q04DX003 (ip), vehicle: acetone).

As to `COc1cc2c(cc1OC)C1CCC3=C(O)CCC3=[N+]1CC2` (stereo unspecified), the T/C by setting is: under setting [13], 101 % of control; under setting [14], 86 % of control.

Regarding `NC(=O)c1ccc(Cl)c(Cl)c1`, the T/C under setting [10] was 97 % of control, the T/C under setting [11] was 95 % of control and the T/C under setting [12] was 91 % of control.

Consider `CC(=O)Nc1ccc([N+](=O)[O-])cc1`, for which the T/C (dose: 100.0 mg/kg/injection, schedule: Q04DX002 (ip), vehicle: gum acacia) was 98 % of control; the T/C (dose: 200.0 mg/kg/injection, schedule: Q04DX002 (ip), vehicle: gum acacia) is 88 % of control; the T/C (dose: 400.0 mg/kg/injection, schedule: Q04DX002 (ip), vehicle: gum acacia) is 107 % of control.

For `O=C1C2C(C(=O)N1c1cccc3ccccc13)C1(Cl)C(Cl)=C(Cl)C2(Cl)C1(Cl)Cl` (stereo unspecified), the T/C was 103 % of control (dose: 12.5 mg/kg/injection, schedule: Q01DX009 (ip), vehicle: Klucel (hydroxypropylcellulose) (HPC)); 104 % of control (dose: 25.0 mg/kg/injection, schedule: Q01DX009 (ip), vehicle: Klucel (hydroxypropylcellulose) (HPC)); 96 % of control (dose: 50.0 mg/kg/injection, schedule: Q01DX009 (ip), vehicle: Klucel (hydroxypropylcellulose) (HPC)).
